The values below come from PMC4276551 (Journal of the renin-angiotensin-aldosterone system : JRAAS, 2014).

For series [1] the following is noted: dose higher than the maximal recommended dose for heart failure and hypertension; without a further decline in blood pressure; cited from earlier work.
Series [2] has as its system Ang I to Ang-(1–7) converting peptidase activity in isolated nuclei from NRK-52E cells. Description: Peptide metabolism: generation of Ang-. The following applies: 37°C, 125I-Ang I 0.5 nM; SCH39370 10 μM, ZPP 50 μM; HPLC with γ detector. It counts as biochemical, rat.
The target of series [3] is T1, renin (NRK-52E cell nuclei) (Rattus norvegicus, UniProt P08424).
T1 sequence (P08424 65-402): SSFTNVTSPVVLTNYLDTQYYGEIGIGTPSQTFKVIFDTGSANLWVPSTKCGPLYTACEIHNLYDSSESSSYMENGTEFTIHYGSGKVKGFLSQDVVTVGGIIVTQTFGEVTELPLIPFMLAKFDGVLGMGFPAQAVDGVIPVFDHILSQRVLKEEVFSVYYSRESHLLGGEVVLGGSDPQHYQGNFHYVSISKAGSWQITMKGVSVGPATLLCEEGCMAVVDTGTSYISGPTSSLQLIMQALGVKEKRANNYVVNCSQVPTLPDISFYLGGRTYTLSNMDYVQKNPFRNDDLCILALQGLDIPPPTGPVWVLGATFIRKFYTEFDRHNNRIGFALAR
Description: Renin activity assay in nuclear lysate of NRK-52E cells. The class given is biochemical. To be noted: basal (control) nuclear lysate, aliskiren 1 μM, 37°C, 90 min; n = 3 passages.

Series [4] concerns (pro)renin receptor. The following applies: cited from earlier work.
For series [5] the following is noted: pH 7.4.

Where a SMILES comes first, the peptide text is derived from it. Where no end group is shown, it is not given here. The star is where a group is joined. Cbz = O=C(OCc1ccccc1)*

Turning to `CCOc1nc2cccc(C(=O)O)c2n1Cc1ccc(-c2ccccc2-c2nnn[nH]2)cc1` [candesartan], the “Effect on persistent proteinuria” value in series [1] is listed as “significantly reduced”.
As for `O=C[C@@H]1CCCN1C(=O)[C@@H]1CCCN1C(=O)OCc1ccccc1` [ZPP, Z-prolyl prolinal] (Cbz-Pro-Pro-aldehyde), the “Effect on generation of Ang-(1–7) in the nuclear extract” value in series [2] is listed as “did not block”.
With `COCCCOc1cc(C[C@@H](C[C@H](N)[C@@H](O)C[C@H](C(=O)NCC(C)(C)C(N)=O)C(C)C)C(C)C)ccc1OC` [aliskiren], in series [3], the “Reduction of nuclear renin activity” value is listed as 83%. Also, in series [4], the “Effect on binding of (pro)renin to the receptor” value is “do not block”.
For DRVYIHPFHL [Ang I], the “Half-life in nuclear cell extracts” value in series [5] was determined as 73 min.
In the case of `O=C(O)C(O)CNC(=O)[C@H](Cc1ccccc1)NC(CCc1ccccc1)C(=O)O` (stereo partly drawn) [SCH39370], the “Effect on generation of Ang-(1–7) in the nuclear extract” value in series [2] is listed as “did not block”.
